# Results published in ChEMBL document CHEMBL3580645, “Antiviral Activity of Flexibilane and Tigliane Diterpenoids from Stillingia lineata” (J Nat Prod, 2015).
# System: not listed separately
# Experiment: in vitro
# Settings: human, MT4 cells
row,SMILES,CC50 at 72 h [µM]
1,CCCCCCCCC(=O)/C=C/C=C/C=C/C(=O)O[C@@]12C[C@@H](C)[C@@]3(O)[C@@H](C=C(CO)C[C@]4(O)C(=O)C(C)=C[C@@H]34)[C@@H]1C2(C)C,13
2,CCC(C)C(=O)O[C@@]12[C@H](OC(C)=O)[C@@H](C)[C@@]3(O)[C@@H](C=C(CO)C[C@]4(O)C(=O)C(C)=C[C@@H]34)[C@@H]1C2(C)C (stereo partly drawn),102
3,O=c1[nH]cnc2c1ncn2[C@H]1CC[C@@H](CO)O1 [DIDANOSINE],> 50
4,Cc1cn([C@H]2C[C@H](N=[N+]=[N-])[C@@H](CO)O2)c(=O)[nH]c1=O [ZIDOVUDINE],> 25
5,CCC(C)C(=O)O[C@@]12[C@H](OC(C)=O)[C@@H](C)[C@]3(O)[C@@H]4C=C(C)C(=O)[C@@H]4CC(CO)=C[C@H]3[C@@H]1C2(C)C (stereo partly drawn),85

# System: Chikungunya virus
# Experiment: microbe, parasite or virus in culture
# Settings: strain 899, Vero
row,SMILES,EC50 [µM]
1,CCCCCCCCC(=O)/C=C/C=C/C=C/C(=O)O[C@@]12C[C@@H](C)[C@@]3(O)[C@@H](C=C(CO)C[C@]4(O)C(=O)C(C)=C[C@@H]34)[C@@H]1C2(C)C,2.2
2,CCC(C)C(=O)O[C@@]12[C@H](OC(C)=O)[C@@H](C)[C@@]3(O)[C@@H](C=C(CO)C[C@]4(O)C(=O)C(C)=C[C@@H]34)[C@@H]1C2(C)C (stereo partly drawn),3.3
3,CCC(C)C(=O)O[C@@]12[C@H](OC(C)=O)[C@@H](C)[C@]3(O)[C@@H]4C=C(C)C(=O)[C@@H]4CC(CO)=C[C@H]3[C@@H]1C2(C)C (stereo partly drawn),77

# System: Human immunodeficiency virus 1
# Experiment: microbe, parasite or virus in culture
# Settings: Human immunodeficiency virus 1, 3B, MT4, 120 h
row,SMILES,EC50 [µM]
1,CCCCCCCCC(=O)/C=C/C=C/C=C/C(=O)O[C@@]12C[C@@H](C)[C@@]3(O)[C@@H](C=C(CO)C[C@]4(O)C(=O)C(C)=C[C@@H]34)[C@@H]1C2(C)C,0.043
2,CCC(C)C(=O)O[C@@]12[C@H](OC(C)=O)[C@@H](C)[C@@]3(O)[C@@H](C=C(CO)C[C@]4(O)C(=O)C(C)=C[C@@H]34)[C@@H]1C2(C)C (stereo partly drawn),0.271
3,O=c1[nH]cnc2c1ncn2[C@H]1CC[C@@H](CO)O1 [DIDANOSINE],10.8
4,CCC(C)C(=O)O[C@@]12[C@H](OC(C)=O)[C@@H](C)[C@]3(O)[C@@H]4C=C(C)C(=O)[C@@H]4CC(CO)=C[C@H]3[C@@H]1C2(C)C (stereo partly drawn),> 85

# System: not listed separately
# Experiment: in vitro
# Settings: monkey, Vero cells
row,SMILES,selectivity ratio
1,CCCCCCCCC(=O)/C=C/C=C/C=C/C(=O)O[C@@]12C[C@@H](C)[C@@]3(O)[C@@H](C=C(CO)C[C@]4(O)C(=O)C(C)=C[C@@H]34)[C@@H]1C2(C)C,1.2

# System: Human immunodeficiency virus 2
# Experiment: microbe, parasite or virus in culture
# Settings: Human immunodeficiency virus 2, ISOLATE ROD, MT4, 120 h
row,SMILES,EC50 [µM]
1,CCCCCCCCC(=O)/C=C/C=C/C=C/C(=O)O[C@@]12C[C@@H](C)[C@@]3(O)[C@@H](C=C(CO)C[C@]4(O)C(=O)C(C)=C[C@@H]34)[C@@H]1C2(C)C,0.018
2,CCC(C)C(=O)O[C@@]12[C@H](OC(C)=O)[C@@H](C)[C@@]3(O)[C@@H](C=C(CO)C[C@]4(O)C(=O)C(C)=C[C@@H]34)[C@@H]1C2(C)C (stereo partly drawn),0.107
3,O=c1[nH]cnc2c1ncn2[C@H]1CC[C@@H](CO)O1 [DIDANOSINE],9.6
4,CCC(C)C(=O)O[C@@]12[C@H](OC(C)=O)[C@@H](C)[C@]3(O)[C@@H]4C=C(C)C(=O)[C@@H]4CC(CO)=C[C@H]3[C@@H]1C2(C)C (stereo partly drawn),13

# System: HCT-116
# Experiment: Cytotoxicity against human HCT116 cells at 1 uM after 72 hrs by MTS assay
# Format: functional
# Settings: HCT-116, 72 h
row,SMILES,inhibition at 1 µM [%]
1,CCCCCCCCC(=O)/C=C/C=C/C=C/C(=O)O[C@@]12C[C@@H](C)[C@@]3(O)[C@@H](C=C(CO)C[C@]4(O)C(=O)C(C)=C[C@@H]34)[C@@H]1C2(C)C,< 40
2,CCC(C)C(=O)O[C@@]12[C@H](OC(C)=O)[C@@H](C)[C@@]3(O)[C@@H](C=C(CO)C[C@]4(O)C(=O)C(C)=C[C@@H]34)[C@@H]1C2(C)C (stereo partly drawn),< 40
3,CCC(C)C(=O)O[C@@]12[C@H](OC(C)=O)[C@@H](C)[C@]3(O)[C@@H]4C=C(C)C(=O)[C@@H]4CC(CO)=C[C@H]3[C@@H]1C2(C)C (stereo partly drawn),< 40

# System: Sindbis virus
# Experiment: microbe, parasite or virus in culture
# Settings: strain HRsp, Vero
row,SMILES,EC50 [µM]
1,CCCCCCCCC(=O)/C=C/C=C/C=C/C(=O)O[C@@]12C[C@@H](C)[C@@]3(O)[C@@H](C=C(CO)C[C@]4(O)C(=O)C(C)=C[C@@H]34)[C@@H]1C2(C)C,11
2,CCC(C)C(=O)O[C@@]12[C@H](OC(C)=O)[C@@H](C)[C@@]3(O)[C@@H](C=C(CO)C[C@]4(O)C(=O)C(C)=C[C@@H]34)[C@@H]1C2(C)C (stereo partly drawn),> 255

# System: not listed separately
# Experiment: in vitro
# Settings: monkey, Vero cells
# Remark: another data set of the same source
row,SMILES,selectivity ratio
1,CCCCCCCCC(=O)/C=C/C=C/C=C/C(=O)O[C@@]12C[C@@H](C)[C@@]3(O)[C@@H](C=C(CO)C[C@]4(O)C(=O)C(C)=C[C@@H]34)[C@@H]1C2(C)C,5.9
2,CCC(C)C(=O)O[C@@]12[C@H](OC(C)=O)[C@@H](C)[C@@]3(O)[C@@H](C=C(CO)C[C@]4(O)C(=O)C(C)=C[C@@H]34)[C@@H]1C2(C)C (stereo partly drawn),41
3,CCC(C)C(=O)O[C@@]12[C@H](OC(C)=O)[C@@H](C)[C@]3(O)[C@@H]4C=C(C)C(=O)[C@@H]4CC(CO)=C[C@H]3[C@@H]1C2(C)C (stereo partly drawn),1.4

# System: MCF7
# Experiment: Cytotoxicity against human MCF7 cells at 1 uM after 72 hrs by MTS assay
# Format: functional
# Settings: MCF7, 72 h
row,SMILES,inhibition at 1 µM [%]
1,CCCCCCCCC(=O)/C=C/C=C/C=C/C(=O)O[C@@]12C[C@@H](C)[C@@]3(O)[C@@H](C=C(CO)C[C@]4(O)C(=O)C(C)=C[C@@H]34)[C@@H]1C2(C)C,< 40
2,CCC(C)C(=O)O[C@@]12[C@H](OC(C)=O)[C@@H](C)[C@@]3(O)[C@@H](C=C(CO)C[C@]4(O)C(=O)C(C)=C[C@@H]34)[C@@H]1C2(C)C (stereo partly drawn),< 40
3,CCC(C)C(=O)O[C@@]12[C@H](OC(C)=O)[C@@H](C)[C@]3(O)[C@@H]4C=C(C)C(=O)[C@@H]4CC(CO)=C[C@H]3[C@@H]1C2(C)C (stereo partly drawn),< 40

# System: not listed separately
# Experiment: in vitro
# Settings: human, MT4 cells
# Remark: another data set of the same source
row,SMILES,selectivity ratio
1,CCCCCCCCC(=O)/C=C/C=C/C=C/C(=O)O[C@@]12C[C@@H](C)[C@@]3(O)[C@@H](C=C(CO)C[C@]4(O)C(=O)C(C)=C[C@@H]34)[C@@H]1C2(C)C,299
2,CCC(C)C(=O)O[C@@]12[C@H](OC(C)=O)[C@@H](C)[C@@]3(O)[C@@H](C=C(CO)C[C@]4(O)C(=O)C(C)=C[C@@H]34)[C@@H]1C2(C)C (stereo partly drawn),376
3,O=c1[nH]cnc2c1ncn2[C@H]1CC[C@@H](CO)O1 [DIDANOSINE],> 4.6

# System: PC-3
# Experiment: Cytotoxicity against human PC3 cells at 1 uM after 72 hrs by MTS assay
# Format: functional
# Settings: PC-3, 72 h
row,SMILES,inhibition at 1 µM [%]
1,CCCCCCCCC(=O)/C=C/C=C/C=C/C(=O)O[C@@]12C[C@@H](C)[C@@]3(O)[C@@H](C=C(CO)C[C@]4(O)C(=O)C(C)=C[C@@H]34)[C@@H]1C2(C)C,< 40
2,CCC(C)C(=O)O[C@@]12[C@H](OC(C)=O)[C@@H](C)[C@@]3(O)[C@@H](C=C(CO)C[C@]4(O)C(=O)C(C)=C[C@@H]34)[C@@H]1C2(C)C (stereo partly drawn),< 40
3,CCC(C)C(=O)O[C@@]12[C@H](OC(C)=O)[C@@H](C)[C@]3(O)[C@@H]4C=C(C)C(=O)[C@@H]4CC(CO)=C[C@H]3[C@@H]1C2(C)C (stereo partly drawn),< 40

# System: not listed separately
# Experiment: in vitro
# Settings: chlorocebus sabaeus, Vero cells
row,SMILES,CC50 at 72 h [µM]
1,CCCCCCCCC(=O)/C=C/C=C/C=C/C(=O)O[C@@]12C[C@@H](C)[C@@]3(O)[C@@H](C=C(CO)C[C@]4(O)C(=O)C(C)=C[C@@H]34)[C@@H]1C2(C)C,13
2,CCC(C)C(=O)O[C@@]12[C@H](OC(C)=O)[C@@H](C)[C@@]3(O)[C@@H](C=C(CO)C[C@]4(O)C(=O)C(C)=C[C@@H]34)[C@@H]1C2(C)C (stereo partly drawn),134
3,CCC(C)C(=O)O[C@@]12[C@H](OC(C)=O)[C@@H](C)[C@]3(O)[C@@H]4C=C(C)C(=O)[C@@H]4CC(CO)=C[C@H]3[C@@H]1C2(C)C (stereo partly drawn),105

# System: not listed separately
# Experiment: in vitro
# Settings: human, MT4 cells
# Remark: another data set of the same source
row,SMILES,selectivity ratio
1,CCCCCCCCC(=O)/C=C/C=C/C=C/C(=O)O[C@@]12C[C@@H](C)[C@@]3(O)[C@@H](C=C(CO)C[C@]4(O)C(=O)C(C)=C[C@@H]34)[C@@H]1C2(C)C,1430
2,CCC(C)C(=O)O[C@@]12[C@H](OC(C)=O)[C@@H](C)[C@@]3(O)[C@@H](C=C(CO)C[C@]4(O)C(=O)C(C)=C[C@@H]34)[C@@H]1C2(C)C (stereo partly drawn),949
3,O=c1[nH]cnc2c1ncn2[C@H]1CC[C@@H](CO)O1 [DIDANOSINE],> 5.2
4,CCC(C)C(=O)O[C@@]12[C@H](OC(C)=O)[C@@H](C)[C@]3(O)[C@@H]4C=C(C)C(=O)[C@@H]4CC(CO)=C[C@H]3[C@@H]1C2(C)C (stereo partly drawn),4

# System: Semliki Forest virus
# Experiment: microbe, parasite or virus in culture
# Settings: strain Vietnam, Vero
row,SMILES,EC50 [µM]
1,CCCCCCCCC(=O)/C=C/C=C/C=C/C(=O)O[C@@]12C[C@@H](C)[C@@]3(O)[C@@H](C=C(CO)C[C@]4(O)C(=O)C(C)=C[C@@H]34)[C@@H]1C2(C)C,> 168
2,CCC(C)C(=O)O[C@@]12[C@H](OC(C)=O)[C@@H](C)[C@@]3(O)[C@@H](C=C(CO)C[C@]4(O)C(=O)C(C)=C[C@@H]34)[C@@H]1C2(C)C (stereo partly drawn),> 255
